Key:
Type in all cases: cell-based
HT29-L23 cells [1] = assay: Mucin-2 induction in HT29-L23 cells; details: read-out: HT29-L23 IC50 (mucin-2 induction)
Description: HT29 cells were seeded in 4 or 8 well slide chambers. 24 hours later, cells were treated for 72 hours in serum-free medium with either Compound Z (1 uM in DMSO) or DMSO at a final DMSO concentration of 0.1%. Treated cells were washed twice with PBS, fixed with 4% paraformaldehyde (10 min, RT) followed by methanol (2 min, −20° C.). Fixed cells were washed twice with PBS, incubated with PBS+0.5% TritonX100 for 10 min., washed twice with PBS and blocked for 2 hr in PBS containing 0.1% TritonX100, 2% BSA and 5% dry milk. Cells were stained with primary antibody against mucin-2, mucin-5AC, mucin-1, mucin-3, or mucin-6 by adding primary antibody in blocking buffer and incubating 1 hr, RT. […]
HT29 subclones were generated through limiting dilution. […] Mucin-2 positive cells were measured by FACS analysis (FIG. 2). […] Images were acquired on an ArrayScan™ system and analyzed for mucin-2 expression with the Target activation application (FIGS. 3A and 3B).
(§1) HeLa cells were transiently transfected with Notch-1 ΔE and the CBF1 luciferase reporter, and inhibition of Notch signaling by compounds known to inhibit γ-secretase was determined. Induction of mucin-2 in HT29-L23 cells was determined as in Example 1 for the same set of γ-secretase inhibitory compounds.

[2] = system: Notch signaling (Notch-1 ΔE / CBF1 luciferase reporter); assay: Inhibition of Notch signaling in HeLa cells transiently transfected with Notch-1 ΔE and CBF1 luciferase reporter; details: Homo sapiens
Description: as §1

Notch = Notch cleavage assay; details: n=252
Text: (§2) Any method for determining the ability of a compound to inhibit cleavage of γ-secretase substrates known in the art may be employed. For example, methods for assessing the ability of a compound to cleave APP are known. The ability of a compound to cleave APP may be assessed, for example, by measuring or detecting Aβ peptides (e.g., Aβ1-40, Aβ1-42; see, e.g., U.S. Published Application No. 2003/0215896).

APP = APP cleavage assay (Aβ peptides); details: n=166
Text: as §2

HT29 cells = assay: Mucin immunostaining in HT29 cells by microscopy; details: 1 uM, 72 hours, serum-free medium
Description: HT29 cells were seeded in 4 or 8 well slide chambers. 24 hours later, cells were treated for 72 hours in serum-free medium with either Compound Z (1 uM in DMSO) or DMSO at a final DMSO concentration of 0.1%. Treated cells were washed twice with PBS, fixed with 4% paraformaldehyde (10 min, RT) followed by methanol (2 min, −20° C.). Fixed cells were washed twice with PBS, incubated with PBS+0.5% TritonX100 for 10 min., washed twice with PBS and blocked for 2 hr in PBS containing 0.1% TritonX100, 2% BSA and 5% dry milk. Cells were stained with primary antibody against mucin-2, mucin-5AC, mucin-1, mucin-3, or mucin-6 by adding primary antibody in blocking buffer and incubating 1 hr, RT. Cells were washed 3× with PBS+0.1% TritonX100 and stained with an appropriate species-specific PE-, TRITC- or FITC-labeled secondary antibody for 30 min., RT. Cells were visualized through microscopy. γ-secretase inhibitor Compound Z induced mucin-2 and mucin-5AC (FIGS. 1A and 1B) but not mucin-1, mucin-3, or mucin-6 in HT29 cells.

HT29-L23 cells [3] = assay: Real time PCR of Notch pathway genes in HT29-L23 cells; details: relative to DMSO, normalized to PPIA
Description: HT29-L23 cells were treated with Compound Z or DMSO as described in Example 1. mRNA were isolated at indicated time points (FIGS. 5A-E) and analyzed by real time PCR with indicated Taqman probes (Applied Biosystems, Foster City, Calif.). Results were normalized relative to the amount of cyclophilin A (PPIA) mRNA for the same sample and were plotted as fold changes relative to DMSO treated sample at time zero. Statistical significance was determined by one-way ANOVA followed by Bonferroni's multiple comparison test performed within groups.

HT29-L23 cells [4] = assay: Mucin-2 induction in HT29-L23 cells transfected with NICD, AICD or control plasmid (High Content Screening); details: 1 uM
Description: HT29-L23 cells were transiently transfected with control plasmid (pcDNA-DsRed) or Myc epitope tagged Notch intracellular domain (NICD) (activated Notch-1) or APP intracellular domain (AICD) (activated APP). Cells were treated with Compound Z (1 uM in DMSO) or vehicle, and protein expression was analyzed by High Content Screening as described in Example 1. After staining with Mucin-2 and Myc antibodies, the transfected subpopulation of cells (Myc positive) were used for final analysis. Cells without DsRed expression were designated as control. Statistical significance was determined by one-way ANOVA followed by Bonferroni's multiple comparison test performed within and between groups.

Compound `C[C@H](NC(=O)[C@@H](O)c1cc(F)cc(F)c1)C(=O)N[C@@H]1C(=O)N(C)N=Cc2ccccc21` [Compound 1] has an IC50 (HT29-L23 cells [1]) of 11.9 nM, an IC50 [2] of 4.59 nM and an EC50 (Notch) of 2.1 nM. The EC50 (APP) was 0.81 nM, the mucin-1 induction (HT29 cells) was “not” and the mucin-2 induction (HT29 cells) was “induced”. For the same compound, the mucin-3 induction (HT29 cells) was “not”, the mucin-5AC induction (HT29 cells) was “induced” and the mucin-6 induction (HT29 cells) was “not”. For the same compound, the “Delta-1 mRNA” value (HT29-L23 cells [3]) was “induced”, the “HES-1 mRNA” value (HT29-L23 cells [3]) was “downregulated” and the “Jagged-2 mRNA” value (HT29-L23 cells [3]) was “induced”. The “Math-1 mRNA” value (HT29-L23 cells [3]) was “induced”, the “Mucin-2 mRNA” value (HT29-L23 cells [3]) was “induced” and the “number of cells producing mucin-2” value (HT29-L23 cells [4]; AICD (activated APP) transfected group) was “increased”. For the same compound, the “number of cells producing mucin-2” value (HT29-L23 cells [4]; Control group) was “increased”.

Source: patent publication US7608408B2, “Methods of identifying compounds that inhibit Notch cleavage” (Bristol-Myers Squibb Company, priority 2005, dated 2009)
